From patent US20180339976A1, “NOVEL TRIAZOLE DERIVATIVES” (priority 2015, published 2018) come the findings set out here.

Structures are written as SMILES.

One data set can be described thus: Log P by HPLC on reversed phase columns (EEC directive 79/831 Annex V.A8).
Conditions: not given
Type of data set: physicochemical. The procedure: Measurement of Log P values was performed according to EEC directive 79/831 Annex V.A8 by HPLC (High Performance Liquid Chromatography) on reversed phase columns with the following methods: • ^[a]
If more than one Log P value is available within the same method, all the values are given and separated by “+”.
Lambda-max-values were determined using UV-spectra from 200 nm to 400 nm and the peak values of the chromatographic signals.
Turning to `OC(Cc1ccnc(Cl)c1F)(Cn1cncn1)c1ccc(Cl)cc1` (stereo not drawn) [Example I-10], the LogP was 2.23^[a].

As for `OC(Cc1cccnc1Cl)(Cn1cncn1)c1ccc(Cl)cc1F` (stereo not drawn) [Example I-29, 2-(4-chloro-2-fluoro-phenyl)-1-(2-chloro-3-pyridyl)-3-(1,2,4-triazol-1-yl)propan-2-ol], the chromatographic logP worked out at 2.15.

Turning to `OC(Cc1ccnc(Cl)c1)(Cn1cncn1)c1ccc(F)cc1` (stereo not drawn) [Example I-05], the LogP is 1.69^[a]. `OC(Cc1ccncc1Cl)(Cn1cncn1)c1ccc(Cl)cc1Cl` (stereo not drawn) [Example I-42]: the LogP was 2.38^[a].

Turning to `OC(Cc1ccncc1Cl)(Cn1cncn1)c1ccc(Oc2ccccc2)cc1` (stereo not drawn) [Example I-01], the LogP was 2.46^[a]. `OC(Cc1ccnc(Cl)c1F)(Cn1cncn1)c1ccc(Cl)cc1Cl` (stereo not drawn) [Example I-09]: the LogP is 2.69^[a]. For `OC(Cc1ccncc1Cl)(Cn1cncn1)c1ccc(F)cc1F` (stereo not drawn) [Example I-30], the LogP is 1.76^[a]. Take `OC(Cc1cc(Cl)ncc1F)(Cn1cncn1)c1ccc(Cl)cc1` (stereo not drawn) [Example I-40]: the LogP is 2.27^[a]. `OC(Cc1ccncc1F)(Cn1cncn1)c1ccccc1` (stereo not drawn) [Example I-36]: the LogP was 1.13^[a].

Regarding `OC(Cc1cccnc1Cl)(Cn1cncn1)c1ccc(Cl)cc1` (stereo not drawn) [Example I-52], the LogP was 1.99^[a]. Consider `OC(Cc1ccnc(Cl)c1F)(Cn1cncn1)c1ccc(F)cc1F` (stereo not drawn) [Example I-08, 1-(2-chloro-3-fluoro-4-pyridyl)-2-(2,4-difluorophenyl)-3-(1,2,4-triazol-1-yl)propan-2-ol], for which the chromatographic logP was 2.14. Turning to `COC(Cc1ccnc(Cl)c1F)(Cn1cncn1)c1ccc(F)cc1F` (stereo not drawn) [Example I-57], the LogP is 2.47^[a]. As for `OC(Cc1ccncc1F)(Cn1cncn1)c1ccc(Cl)cc1Cl` (stereo not drawn) [Example I-53], the LogP is 2.00^[a]. `OC(Cc1ccncc1Cl)(Cn1cncn1)c1ccc(F)cc1` (stereo not drawn) [Example I-18]: the LogP was 1.57^[a]. Still for that read-out and setting: the same measure for `OC(Cc1cc(F)ncc1Cl)(Cn1cncn1)c1ccc(Oc2ccc(F)cc2F)cc1` (stereo not drawn) [Example I-54]: 3.02^[a]; for `OC(Cc1cccnc1Cl)(Cn1cncn1)c1cccc(Cl)c1` (stereo not drawn) [Example I-17]: 1.97^[a].

For the compound `OC(Cc1ccnc(Cl)c1F)(Cn1cncn1)c1ccc(F)cc1` (stereo not drawn) [Example I-23], the LogP was 1.91^[a]. As to `OC(Cc1ccncc1Cl)(Cn1cncn1)c1ccc(Oc2ccc(F)cc2F)cc1` (stereo not drawn) [Example I-19], the LogP is 2.57^[a]. Same read-out and setting: in the case of `OC(Cc1cccnc1Cl)(Cn1cncn1)c1ccccc1` (stereo not drawn) [Example I-51] it was 1.61^[a]. Take `OC(Cc1ccnc(Cl)c1)(Cn1cncn1)c1ccc(Oc2ccccc2)cc1` (stereo not drawn) [Example I-24]: the LogP is 2.57^[a].

As for `OC(Cc1cc(Cl)ncc1F)(Cn1cncn1)c1ccc(F)cc1` (stereo not drawn) [Example I-32], the LogP was 1.96^[a]. Take `Fc1cc(Cl)ccc1C1(Cc2cccnc2Cl)CO1` (stereo not drawn) [XII-1, 2-chloro-3-[[2-(4-chloro-2-fluoro-phenyl)oxiran-2-yl]methyl]pyridine]: the chromatographic logP was 3.31. In the case of `OC(Cc1ccnc(Cl)c1)(Cn1cncn1)c1ccc(Oc2ccc(F)cc2F)cc1` (stereo not drawn) [Example I-25], the LogP is 2.69^[a]. Still for that read-out and setting: the same measure for `N#Cc1ccc(C(O)(Cc2cccnc2Cl)Cn2cncn2)cc1` (stereo not drawn) [Example I-35]: 1.47^[a]; for `OC(Cc1ccnc(Cl)c1F)(Cn1cncn1)c1ccc(F)cc1F` (single isomer, unassigned) [Example I-56]: 2.21^[a].

Turning to `OC(Cc1ccncc1Cl)(Cn1cncn1)c1ccc(Cl)cc1` (stereo not drawn) [Example I-11], the LogP is 1.86^[a].

`OC(Cc1ccnc(Cl)c1)(Cn1cncn1)c1ccc(Cl)cc1Cl` (stereo not drawn) [Example I-50]: the LogP was 2.42^[a].

For the compound `OC(Cc1ccnc(Cl)c1)(Cn1cncn1)c1ccccc1` (stereo not drawn) [Example I-37], the LogP is 1.60^[a].

The data set is the same for the next values; noted with them: Table 1, formula (I); method [a]: LC-UV, acidic range, 0.1% formic acid in water and acetonitrile.
Consider `OC(Cc1ccnc(Cl)c1)(Cn1cncn1)c1ccc(-c2ccccc2)cc1` (stereo not drawn) [Example I-39], for which the LogP was 2.57^[a]. Turning to `OC(Cc1ccncc1Cl)(Cn1cncn1)c1ccc(-c2ccccc2)cc1` (stereo not drawn) [Example I-02], the LogP was 2.46^[a].

Still in this data set, the particulars now being: Table 2, epoxides of formula (XII); method [a]: LC-UV, acidic range, 0.1% formic acid in water and acetonitrile.
For the compound `Fc1ccc(Oc2ccc(C3(Cc4c(Cl)cncc4Cl)CO3)cc2)c(F)c1` (racemic) [XII-52], the LogP was 4.70^[a]. As for `Fc1c(CC2(c3ccc(Cl)cc3Cl)CO2)ccnc1Cl` (racemic) [XII-46], the LogP was 3.02^[a]. Turning to `Fc1c(CC2(c3ccc(Oc4ccccc4)cc3)CO2)ccnc1Cl` (racemic) [XII-48], the LogP is 4.20^[a]. The same measure, in the same setting: in the case of `Fc1cnc(Cl)cc1CC1(c2ccc(Cl)cc2Cl)CO1` (stereo not drawn) [XII-19] it was 4.17^[a]; in that of `Fc1ccc(C2(Cc3cc(F)ncc3Cl)CO2)cc1` (racemic) [XII-39], 3.37^[a]. For the compound `Fc1ccc(Oc2ccc(C3(Cc4ccncc4F)CO3)cc2)c(F)c1` (stereo not drawn) [XII-5], the LogP was 3.37^[a]. Still for that read-out and setting: in the case of `Fc1ccc(C2(Cc3ccnc(Cl)c3)CO2)c(F)c1` (stereo not drawn) [XII-11] it was 2.93^[a]; in that of `Fc1ccc(C2(Cc3ccncc3F)CO2)c(F)c1` (stereo not drawn) [XII-6], 2.38^[a]; in that of `Fc1cnccc1CC1(c2ccc(Cl)cc2)CO1` (stereo not drawn) [XII-2], 2.65^[a].

As to `Clc1ccc(C2(Cc3ccncc3Cl)CO2)c(Cl)c1` (stereo not drawn) [XII-31], the LogP was 3.06^[a]. On to `Fc1cnccc1CC1(c2ccc(Cl)cc2Cl)CO1` (stereo not drawn) [XII-3], for which the LogP was 3.19^[a].

As to `Clc1ccc(C2(Cc3c(Cl)cncc3Cl)CO2)cc1` (racemic) [XII-57], the LogP is 4.10^[a]. Consider `Fc1ccc(Oc2ccc(C3(Cc4ccnc(Cl)c4F)CO3)cc2)c(F)c1` (racemic) [XII-44], for which the LogP is 4.20^[a].

`Fc1ccc(C2(Cc3ccnc(Cl)c3F)CO2)c(F)c1` (racemic) [XII-47]: the LogP is 3.26^[a]. On to `N#Cc1ccc(C2(Cc3cccnc3Cl)CO2)cc1` (stereo not drawn) [XII-26], for which the LogP is 2.35^[a]. For `Fc1cccc(F)c1C1(Cc2ccncc2Cl)CO1` (stereo not drawn) [XII-66], the LogP is 2.50^[a]. As to `Clc1ccc(C2(Cc3ccnc(Cl)c3)CO2)cc1` (stereo not drawn) [XII-15], the LogP was 3.19^[a].

For the compound `Fc1ccc(C2(Cc3cc(Cl)ncc3F)CO2)c(F)c1` (stereo not drawn) [XII-20], the LogP is 3.24^[a].

In the case of `Fc1ccc(C2(Cc3ccncc3F)CO2)cc1` (stereo not drawn) [XII-4], the LogP is 2.23^[a]. With `Clc1cncc(Cl)c1CC1(c2ccc(Oc3ccccc3)cc2)CO1` (racemic) [XII-51], the LogP was 4.76^[a]. Consider `Fc1c(CC2(c3ccc(Cl)cc3)CO2)ccnc1Cl` (racemic) [XII-43], for which the LogP is 3.58^[a]. With `Clc1ccc(C2(Cc3ccnc(Cl)c3)CO2)c(Cl)c1` (stereo not drawn) [XII-10], the LogP was 3.85^[a]. As for `Fc1ccc(C2(Cc3ccnc(Cl)c3F)CO2)cc1` (racemic) [XII-50], the LogP is 3.11^[a].

For `Fc1cnc(Cl)cc1CC1(c2ccc(-c3ccccc3)cc2)CO1` (stereo not drawn) [XII-22], the LogP was 4.28^[a].

On to `Fc1ccc(C2(Cc3c(Cl)cncc3Cl)CO2)c(F)c1` (racemic) [XII-55], for which the LogP was 3.68^[a]. With `Fc1cnc(Cl)cc1CC1(c2ccc(Oc3ccccc3)cc2)CO1` (stereo not drawn) [XII-18], the LogP was 4.23^[a].

`Fc1ccc(C2(Cc3cc(Cl)ncc3F)CO2)cc1` (stereo not drawn) [XII-16]: the LogP was 3.15^[a].

For orientation: chromatographic logP means a lipophilicity value derived from retention on a column. Read a high chromatographic logP as higher lipophilicity.
